Square brackets hold non-standard residues; d marks the D form. Ends that are not written are not given here. Peptide text beside a SMILES is read from it. Phe(4-F) = N[CH](Cc1ccc(F)cc1)C(=O)O; Dopa = N[CH](Cc1ccc(O)c(O)c1)C(=O)O
What was measured:
[1] = Peptide layer thickness on Ti by XPS; type: physicochemical; settings: peptide-coated Ti substrate
Excerpt: Using X-ray Photoelectron Spectrometry (XPS) analysis, the presence of fluorine atoms on the surface and the thickness of the peptide layer were characterized. As expected, in the case of a bare titanium, there was no indication of the presence of fluorine, while in all cases of substrate-coated with peptides, the presence of fluorine signal indicated the deposition of the peptides on the surface (FIG. 3).

Escherichia Coli = assay: Adherence of Escherichia Coli to bare and peptide coated substrates (live bacteria count after biofilm formation); type: cell-based; settings: peptide-coated Ti, overnight incubation in bacteria medium, CFU plate counts
Method: To assess the bacterial attachment to the surfaces and the anti-fouling activity of the peptides, the adherence of Escherichia Coli to bare and peptide coated substrates was promoted. Following this, the surfaces incubated overnight in the bacteria medium to enable the biofilm formation. After the incubation, the surfaces were slowly rinsed, swabbed the adhered bacteria and seeded them in order to evaluate the number of live bacteria on the substrates. […] Escherichia coli were grown in LB medium for 5.5 hours at 37° C. in loosely capped erlenmeyer flask with agitation (120 rpm). […] Afterward, LB media (2 mL) were added to each well and the plates were incubated at 37° C. overnight. Each surface was rinsed by shaking the surface in sterilized water three times. A sterile swab was then used to pick up the biofilms attached to the surfaces. The swabs were inserted into eppendorf tubes containing 1 mL of sterilized water and vortexed for 1 min. Each sample was decimally diluted and plated out on dried LB agar (10 g LB and 7.5 g agar per 0.5 L TDW) plate (8 drops of 10 ul for each dilution). Plate counts (CFU mL-1) were carried out after incubation over night at 37° C. The data presents 3 experiments with triplicates for each experiment. The data is given as mean values ±standard deviations. Significant differences between group means were analyzed by t-test and confidence levels were set at 95%.

| Compound | thickness of the peptide layer (XPS) [1] [nm] | reduction of live bacteria on substrate as compared to a bare Ti surface (Escherichia Coli) |
| --- | --- | --- |
| N=C(N)NCCCC(NC(=O)C(Cc1ccc(F)cc1)NC(=O)C(Cc1ccc(F)cc1)NC(=O)C(N)Cc1ccc(O)c(O)c1)C(=O)NCC(=O)NC(CC(=O)O)C(N)=O (stereo not drawn) [Peptide 1, DOPA-Phe(4F)-Phe(4F)-Arg-Gly-Asp] (H-[Dopa][Phe(4-F)][Phe(4-F)]RGD-NH2; configuration not given here) | 4.74 | up to 80% |
| N=C(N)NCCCC(NC(=O)C(Cc1ccc(O)c(O)c1)NC(=O)C(Cc1ccc(F)cc1)NC(=O)C(N)Cc1ccc(F)cc1)C(=O)NCC(=O)NC(CC(=O)O)C(N)=O (stereo not drawn) [Peptide 2] (H-[Phe(4-F)][Phe(4-F)][Dopa]RGD-NH2; configuration not given here) | 4.33 | ≤ 82% |
| N=C(N)NCCCC(NC(=O)C(Cc1ccc(F)cc1)NC(=O)C(CC(=O)O)NC(=O)C(N)Cc1ccc(O)c(O)c1)C(=O)NC(Cc1ccc(F)cc1)C(=O)NCC(N)=O (stereo not drawn) [Peptide 3] (H-[Dopa]D[Phe(4-F)]R[Phe(4-F)]G-NH2; configuration not given here) |  | up to 72% |
| Peptide 4: control peptide with the same amino acids in mixed sequence, without the cell adhesion and the anti-fouling elements ([Dopa][Phe(4-F)]DG[Phe(4-F)]R; not fully specified (C-terminus)) |  | ≤ 62% |

Source: patent US11925724B2, “Compounds with dual activity” (priority 2015, dated 2024)
